Reference: patent publication US4694004A, “Semicarbazide derivatives, processes for preparation thereof and pharmaceutical composition comprising the same” (Fujisawa Pharmaceutical Co., Ltd., priority 1984, dated 1987)

What was measured:
[1] = system: Paw edema induced by carrageenin; assay: Carrageenin Foot Edema (antiinflammatory activity); type: in vivo, male Sprague-Dawley rats; details: Dose: 32 mg/kg, orally 60 minutes before phlogogen; edema volume 3 hours after 1% carrageenin; rats
Description: (1) Carrageenin Foot Edema
Five male Sprague-Dawley rats weighing about 200 g were used per group.
Paw edema was induced by subplantar injection of 1% carrageenin (0.1 ml/rat) into the right hind paw. The test drug was suspended in 0.5% methylcellulose and administered orally 60 minutes before phlogogen. Paw volume was measured with plethysmometer (Ugo Bazil Co., Ltd.) by water displacement immersing the paw to the lateral malleolus. The difference of paw volume before and 3 hours after the phlogogen was designated as edema volume.
The data were analyzed statistically by student's t-test.

[2] = system: writhing syndrome induced by acetic acid; assay: Acetic Acid Induced Writhing (analgesic activity); type: in vivo, male ddY strain mice; details: Dose: 32 mg/kg, orally 60 minutes before 0.6% acetic acid i.p.; observed from 3 to 13 minutes; mice
Description: (1) Acetic Acid Induced Writhing
Ten male ddY strain mice were used per group. To estimate the frequency of writhing syndrome, the animals were observed from 3 to 13 minutes after an intraperitoneal injection of 0.2 ml/10 g of 0.6% acetic acid. The drugs were given orally 60 minutes before acetic acid. The frequency of writhing syndrome in the treated animals was compared with that in the nontreated control animals.

SMILES | Inhibition (%) of carrageenin foot edema [1] [%] | Inhibition (%) of acetic acid induced writhing [2] [%]
O=C(Nc1ccncc1)NN1CC=CCC1 [Compound A, N-[(4-Pyridylcarbamoyl)amino]-1,2,3,6-tetrahydropyridine] | 41.4 | 73.4
O=C(Nc1cccnc1)NN1CC=CCC1 [Compound B, N-[(3-Pyridylcarbamoyl)amino]-1,2,3,6-tetrahydropyridine] | 45.9 | 95.5
O=C(Nc1ccccn1)NN1CC=CCC1 [Compound C, N-[(2-Pyridylcarbamoyl)amino]-1,2,3,6-tetrahydropyridine] | 50.9 | –
O=C(Nc1ccncn1)NN1CC=CCC1 [Compound D, N-[(4-Pyrimidinylcarbamoyl)amino]-1,2,3,6-tetrahydropyridine] | 48.0 | 68.5
O=C(Nc1cnccn1)NN1CC=CCC1 [Compound E, N-(Pyrazinylcarbamoylamino)-1,2,3,6-tetrahydropyridine] | 54.7 | –
O=C(Nc1ccc(Cl)nc1)NN1CC=CCC1 [Compound F, N-[[(2-Chloropyridin-5-yl)carbamoyl]amino]-1,2,3,6-tetrahydropyridine] | 49.9 | 75.1
O=C(NN1CC=CCC1)NN1CCCC1 [Compound G, N-[(1-Pyrrolidinylcarbamoyl)amino]-1,2,3,6-tetrahydropyridine] | – | 84.7
O=C(NN1CC=CCC1)NN1CC=CCC1 [Compound H, N,N'-[Bis-(1,2,3,6-tetrahydropyridin-1-yl)]urea] | – | 82.0
